Experiment [1] concerns MCF7. Put plainly: Downregulation of CyclinD protein expression in human MCF7 cells up to 10 uM after 24 hrs by Western blot method. Type of experiment: functional, cell-based. Background: Immunoblotting shows a protein as a band on a membrane.
Experiment [2] concerns MCF7. Put plainly: Induction of DNA double strand breaks in human MCF7 cells assessed as increase in gammaH2AX level after 24 hrs by Western blot analysis. Format: functional, cell-based.
Another experiment has as its system HCC1937. Put plainly: Potency index, ratio of olaparib IC50 to compound IC50 for human HCC1937 cells harboring BRCA1 mutant. Format: functional.
For experiment [3], the system named is MCF7. Put plainly: Potency index, ratio of olaparib IC50 to compound IC50 for human MCF7 cells. Type of experiment: functional.
For experiment [4], the system named is MCF7. Briefly: Cell cycle arrest in human MCF7 cells assessed as accumulation at S phase at 10 uM after 24 hrs by propidium iodide staining based flow cytometry (reference value: 59.72 +/- 2.98%). Type of experiment: functional. On the technique in general: In flow cytometry, cells or beads pass a laser one at a time.
Experiment [5] deals with T1, DNA topoisomerase 1 (Homo sapiens) (UniProt P11387).
T1 sequence (whole entry): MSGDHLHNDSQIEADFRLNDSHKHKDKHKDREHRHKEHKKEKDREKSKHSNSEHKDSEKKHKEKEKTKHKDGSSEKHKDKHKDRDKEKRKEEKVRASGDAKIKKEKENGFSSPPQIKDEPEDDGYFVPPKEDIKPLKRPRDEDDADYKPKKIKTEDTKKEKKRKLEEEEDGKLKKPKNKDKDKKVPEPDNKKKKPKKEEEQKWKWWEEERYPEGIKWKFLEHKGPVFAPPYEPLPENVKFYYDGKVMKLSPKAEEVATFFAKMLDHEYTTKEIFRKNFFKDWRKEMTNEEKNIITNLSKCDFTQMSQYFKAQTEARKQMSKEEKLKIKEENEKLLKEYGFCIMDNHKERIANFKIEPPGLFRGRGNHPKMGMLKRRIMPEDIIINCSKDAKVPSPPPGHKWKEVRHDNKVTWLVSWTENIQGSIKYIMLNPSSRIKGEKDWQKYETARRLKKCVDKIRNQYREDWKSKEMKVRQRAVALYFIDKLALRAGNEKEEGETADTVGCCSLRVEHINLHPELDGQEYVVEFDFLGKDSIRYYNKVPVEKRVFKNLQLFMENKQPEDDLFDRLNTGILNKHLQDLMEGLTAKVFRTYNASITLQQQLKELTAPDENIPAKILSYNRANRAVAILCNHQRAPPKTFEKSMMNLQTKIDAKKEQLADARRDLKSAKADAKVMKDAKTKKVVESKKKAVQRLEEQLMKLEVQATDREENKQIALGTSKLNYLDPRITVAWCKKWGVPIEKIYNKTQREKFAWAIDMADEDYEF
Briefly: Inhibition of topoisomerase-1 in human MCF7 cells assessed as enzyme-DNA cleavage complex formation by measuring decrease in topoisomerase-1 protein expression after 24 hrs by Western blot analysis. Type of experiment: cell-based.

Experiment [6] deals with MCF7. Briefly: Upregulation of cleaved caspase-3 protein expression in human MCF7 cells after 24 hrs by Western blot method. Type of experiment: functional, cell-based.
Experiment [7] concerns MCF7. Put plainly: Induction of apoptosis in human MCF7 cells assessed as live cells at 1 uM after 48 hrs by Annexin V-FITC/propidium iodide staining based flow cytometry (reference value: 99.9%). Format: functional.
Experiment [8] concerns MCF7. Put plainly: Cell cycle arrest in human MCF7 cells after 24 hrs by propidium iodide staining based flow cytometry. Type of experiment: functional.
The test system of experiment [9] is MCF7. Briefly: Induction of apoptosis in human MCF7 cells after 48 hrs by Annexin V-FITC/propidium iodide staining based flow cytometry. Format: functional, cell-based.
The test system of experiment [10] is MCF7. Briefly: Induction of apoptosis in human MCF7 cells assessed as necrotic cells at 5 uM after 48 hrs by Annexin V-FITC/propidium iodide staining based flow cytometry (reference value: 0%). Format: functional.
A further experiment deals with HCT-116. Briefly: Potency index, ratio of m-AMSA IC50 to compound IC50 for human HCT116 cells expressing topoisomerase-1. Format: functional.
Experiment [11] relates to MCF7. Put plainly: Cell cycle arrest in human MCF7 cells assessed as accumulation at G0/G1 phase at 10 uM after 24 hrs by propidium iodide staining based flow cytometry (reference value: 17.67 +/- 1.25%). Type of experiment: functional.
The target of experiment [12] is Poly [ADP-ribose] polymerase 1 (Homo sapiens, UniProt P09874). Put plainly: Inhibition of PARP1 (unknown origin) assessed as reduction in biotinylated poly(ADP-ribose) incorporation on to histone protein by ELISA based colorimetric assay. Background: ELISA stands for enzyme-linked immunosorbent assay.
The subject of experiment [13] is MCF7. Put plainly: Antitumor activity against human MCF7 cells xenografted in mouse assessed as tumor growth inhibition at 20 to 40 mg/kg/day, ip measured on day 30 post initial treatment. Type of experiment: functional, organism-based.
Experiment [14] has as its system MCF7. Put plainly: Upregulation of p27 protein expression in human MCF7 cells after 24 hrs by Western blot method. Format: functional, cell-based.
A further experiment deals with Cytochrome P450 2D6 (Homo sapiens, UniProt P10635). Briefly: Inhibition of CYP2D6 in human liver microsomes preincubated for 10 mins followed by NADPH/substrate addition measured after 20 mins by LC-MS/MS analysis.
Experiment [15] has as its system MCF7. Briefly: Induction of apoptosis in human MCF7 cells assessed as live cells at 5 uM after 48 hrs by Annexin V-FITC/propidium iodide staining based flow cytometry (reference value: 99.9%). Format: functional.
The subject of experiment [16] is MCF7. Briefly: Downregulation of CyclinE protein expression in human MCF7 cells up to 10 uM after 24 hrs by Western blot method. Format: functional, cell-based.
The target in the next experiment is T2, Cytochrome P450 1A2 (Homo sapiens, UniProt P05177).
T2 sequence (P05177 whole entry): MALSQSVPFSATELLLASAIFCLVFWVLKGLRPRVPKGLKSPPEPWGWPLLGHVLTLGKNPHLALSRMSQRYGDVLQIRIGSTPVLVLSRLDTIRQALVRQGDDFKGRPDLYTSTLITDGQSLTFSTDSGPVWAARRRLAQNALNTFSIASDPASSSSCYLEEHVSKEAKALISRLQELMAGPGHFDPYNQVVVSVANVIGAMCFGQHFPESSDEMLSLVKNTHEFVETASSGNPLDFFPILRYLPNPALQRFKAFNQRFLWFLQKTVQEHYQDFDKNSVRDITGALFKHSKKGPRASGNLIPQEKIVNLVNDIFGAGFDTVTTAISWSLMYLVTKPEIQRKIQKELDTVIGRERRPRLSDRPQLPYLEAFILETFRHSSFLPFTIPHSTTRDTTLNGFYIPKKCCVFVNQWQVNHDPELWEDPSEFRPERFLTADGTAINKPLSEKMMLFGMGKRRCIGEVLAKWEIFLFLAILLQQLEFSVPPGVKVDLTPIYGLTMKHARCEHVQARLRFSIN
Briefly: Inhibition of CYP1A2 in human liver microsomes preincubated for 10 mins followed by NADPH/substrate addition measured after 20 mins by LC-MS/MS analysis.

Experiment [17] has as its target DNA topoisomerase 2-alpha (Homo sapiens) (UniProt P11388). Put plainly: Inhibition of human topoisomerase-2 at 100 uM using supercoiled pBR322 DNA as substrate after 10 to 15 mins by ethidium bromide staining based electrophoresis method.
Experiment [18] has as its system MCF7. Briefly: Downregulation of CDK4 protein expression in human MCF7 cells up to 10 uM after 24 hrs by Western blot method. Format: functional, cell-based.
The subject of experiment [19] is MCF7. Put plainly: Upregulation of cleaved PARP protein expression in human MCF7 cells after 24 hrs by Western blot method. Type of experiment: functional, cell-based.
Experiment [20] deals with MCF7. Put plainly: cells. The following applies: Homo sapiens, MCF7, 72 h.

pIC50: −log10 of the molar value. The source made the active and inactive calls. The calls are words filed in the database; no cut-off is given here.

Sequence of Poly [ADP-ribose] polymerase 1 (P09874 whole entry): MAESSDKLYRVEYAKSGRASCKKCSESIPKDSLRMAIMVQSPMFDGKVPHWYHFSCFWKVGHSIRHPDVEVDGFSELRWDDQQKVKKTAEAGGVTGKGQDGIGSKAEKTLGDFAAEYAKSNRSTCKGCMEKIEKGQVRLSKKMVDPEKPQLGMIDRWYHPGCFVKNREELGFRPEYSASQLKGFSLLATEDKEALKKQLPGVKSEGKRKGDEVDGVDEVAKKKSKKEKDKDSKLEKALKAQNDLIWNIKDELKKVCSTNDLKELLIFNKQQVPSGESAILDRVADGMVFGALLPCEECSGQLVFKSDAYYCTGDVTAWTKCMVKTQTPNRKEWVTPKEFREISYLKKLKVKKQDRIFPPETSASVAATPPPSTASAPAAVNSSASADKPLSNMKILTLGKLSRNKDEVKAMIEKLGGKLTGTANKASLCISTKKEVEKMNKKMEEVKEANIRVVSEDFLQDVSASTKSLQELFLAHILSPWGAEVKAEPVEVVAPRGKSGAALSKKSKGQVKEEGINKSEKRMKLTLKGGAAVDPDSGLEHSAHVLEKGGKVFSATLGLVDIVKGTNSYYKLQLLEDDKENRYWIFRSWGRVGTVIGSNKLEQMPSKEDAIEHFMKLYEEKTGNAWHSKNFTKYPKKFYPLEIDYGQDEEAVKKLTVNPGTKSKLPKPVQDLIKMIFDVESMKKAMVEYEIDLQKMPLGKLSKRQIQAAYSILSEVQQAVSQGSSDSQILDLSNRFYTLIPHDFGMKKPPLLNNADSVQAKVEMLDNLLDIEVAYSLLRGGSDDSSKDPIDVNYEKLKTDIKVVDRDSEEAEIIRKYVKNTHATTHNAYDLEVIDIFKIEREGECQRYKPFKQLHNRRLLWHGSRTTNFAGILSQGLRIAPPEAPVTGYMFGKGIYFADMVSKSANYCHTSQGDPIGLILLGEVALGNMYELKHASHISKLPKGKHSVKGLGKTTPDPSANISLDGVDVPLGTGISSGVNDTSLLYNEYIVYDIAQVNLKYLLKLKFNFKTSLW
Sequence of DNA topoisomerase 2-alpha (Homo sapiens) (P11388 whole entry): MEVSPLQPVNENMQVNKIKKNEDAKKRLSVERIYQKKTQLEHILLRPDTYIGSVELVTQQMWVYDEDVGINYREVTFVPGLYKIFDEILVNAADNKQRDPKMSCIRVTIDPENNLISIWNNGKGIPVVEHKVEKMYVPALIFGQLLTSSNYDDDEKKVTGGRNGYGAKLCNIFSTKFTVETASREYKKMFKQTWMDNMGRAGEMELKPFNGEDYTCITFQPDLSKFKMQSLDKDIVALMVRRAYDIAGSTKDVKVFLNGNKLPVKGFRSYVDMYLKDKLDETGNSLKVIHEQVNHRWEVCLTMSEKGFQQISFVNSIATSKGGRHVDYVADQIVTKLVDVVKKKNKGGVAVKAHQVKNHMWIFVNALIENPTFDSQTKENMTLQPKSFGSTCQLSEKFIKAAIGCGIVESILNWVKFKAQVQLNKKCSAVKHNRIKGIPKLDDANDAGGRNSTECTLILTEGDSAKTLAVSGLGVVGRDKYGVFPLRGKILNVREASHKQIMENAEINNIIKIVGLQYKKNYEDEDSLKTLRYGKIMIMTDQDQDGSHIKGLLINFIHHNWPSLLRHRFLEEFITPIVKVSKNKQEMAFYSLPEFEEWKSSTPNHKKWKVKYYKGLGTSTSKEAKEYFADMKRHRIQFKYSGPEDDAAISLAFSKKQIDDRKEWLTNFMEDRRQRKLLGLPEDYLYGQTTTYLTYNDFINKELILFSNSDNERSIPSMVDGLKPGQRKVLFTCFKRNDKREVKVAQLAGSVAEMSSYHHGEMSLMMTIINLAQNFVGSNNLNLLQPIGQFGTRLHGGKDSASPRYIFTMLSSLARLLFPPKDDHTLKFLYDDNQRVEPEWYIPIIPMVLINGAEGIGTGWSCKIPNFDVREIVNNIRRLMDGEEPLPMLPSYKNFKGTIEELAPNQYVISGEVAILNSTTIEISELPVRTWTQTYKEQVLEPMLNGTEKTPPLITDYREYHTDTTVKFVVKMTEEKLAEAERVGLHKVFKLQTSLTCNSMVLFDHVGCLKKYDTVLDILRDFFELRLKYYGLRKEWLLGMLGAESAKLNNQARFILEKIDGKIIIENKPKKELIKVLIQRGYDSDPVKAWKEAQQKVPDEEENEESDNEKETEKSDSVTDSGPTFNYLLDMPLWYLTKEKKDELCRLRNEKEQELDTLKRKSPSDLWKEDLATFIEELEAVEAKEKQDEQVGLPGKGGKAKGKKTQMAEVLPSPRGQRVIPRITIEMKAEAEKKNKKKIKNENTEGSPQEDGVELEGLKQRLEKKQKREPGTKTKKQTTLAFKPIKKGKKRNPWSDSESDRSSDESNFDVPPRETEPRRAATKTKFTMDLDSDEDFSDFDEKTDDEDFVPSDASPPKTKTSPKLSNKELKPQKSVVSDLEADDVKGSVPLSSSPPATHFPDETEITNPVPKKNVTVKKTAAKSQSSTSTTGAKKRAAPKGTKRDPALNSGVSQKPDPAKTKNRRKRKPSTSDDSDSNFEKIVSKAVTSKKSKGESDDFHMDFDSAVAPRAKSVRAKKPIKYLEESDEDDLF
Sequence of Cytochrome P450 2D6 (P10635 whole entry): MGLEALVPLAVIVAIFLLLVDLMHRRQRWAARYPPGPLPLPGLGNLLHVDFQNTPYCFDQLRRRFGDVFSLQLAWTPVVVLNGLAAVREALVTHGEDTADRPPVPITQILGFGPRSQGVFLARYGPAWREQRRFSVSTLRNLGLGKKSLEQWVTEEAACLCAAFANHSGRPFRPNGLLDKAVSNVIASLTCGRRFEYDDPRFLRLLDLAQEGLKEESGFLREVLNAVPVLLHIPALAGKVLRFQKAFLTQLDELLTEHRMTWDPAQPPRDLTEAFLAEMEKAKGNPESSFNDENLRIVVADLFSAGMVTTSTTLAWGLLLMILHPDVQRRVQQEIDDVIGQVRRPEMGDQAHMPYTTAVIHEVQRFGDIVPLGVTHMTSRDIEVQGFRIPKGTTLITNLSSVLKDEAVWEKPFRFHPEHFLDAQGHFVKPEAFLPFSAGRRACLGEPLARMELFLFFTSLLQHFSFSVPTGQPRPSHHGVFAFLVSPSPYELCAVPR

A word on the pIC50: it is the negative decadic logarithm of the IC50, by convention in mol/L. For the molecule `Cc1cccc2c(Nc3cccc(-c4nc5c(C(N)=O)cccc5[nH]4)c3)c3ccccc3nc12`, the result in the experiment with MCF7 [1], with MCF7 [16] and with MCF7 [18] was Active. Further, the Activity entry in the experiment with MCF7 [2] is “Dose-dependent effect”; in the experiment on MCF7 [4] it was 30.87%; in the experiment on MCF7 [6], “Dose-dependent effect”; in the experiment with MCF7 [7], 42.9%; in the experiment on MCF7 [8], “Dose-dependent effect”; in the experiment on MCF7 [9] it was “Dose-dependent effect”. For the same molecule, the Activity in the experiment on MCF7 [10] was 0.641%; in the experiment on MCF7 [11], 58.27%; in the experiment with MCF7 [14] it was “Dose-dependent effect”; in the experiment on MCF7 [15], 39.1%; in the experiment on MCF7 [19], “Dose-dependent effect”. For the same molecule, the results for the Ratio IC50 in the experiment on HCC1937, in the experiment with MCF7 [3] and with HCT-116 were 6, 17 and 2.7, respectively. The inhibition entry in experiment [5] was “Dose-dependent effect”. Also, the pIC50 was 6.35 in [12], < 5.00 against Cytochrome P450 2D6, < 5.00 at Cytochrome P450 1A2 and 5.67 with MCF7 [20]. Besides, in the experiment with MCF7 [13], the TGI result is “Active”. Besides, the inhibition entry in experiment [17] was “Active”.

(Values after ChEMBL document CHEMBL4130375, “Design, synthesis and biological evaluation of 4-amidobenzimidazole acridine derivatives as dual PARP and Topo inhibitors for cancer therapy” (Eur J Med Chem, 2017).)
